Test results as given in patent publication US20180353501A1 (Arvinas, Inc., priority 2017, published 2018).

Molecular target: T1, cMET (Homo sapiens, UniProt P08581)
T1 construct: endogenous in cells; host or cells: MDA-MB-231
Assay: Western blot examination of protein degradation, MDA-MB-231 cells
Assay type: cell-based
Conditions: 24 hours
Protocol: FIG. 4. Illustrates the degradation of Met by exemplary VHL (Examples 1 and 6) and cereblon (Examples 2 and 8) PROTACS.
Western Blot Examination of Protein Degradation.
MDA-MB-231 cells (1-1.5×10^6) were treated for 24 hours with the indicated compounds solubilized in DMSO. The cells were collected at 300 g for 3 minutes. The cells were then lysed in lysis buffer (25 mM Tris, 1% Triton, 0.25% deoxycholic acid) with Roche protease inhibitor complete cocktail and phosphatase inhibitors (10 mM sodium fluoride, 10 mM sodium pyrophosphate, 1 mM sodium orthovanadate and 20 mM β-glycerophosphate). The total protein concentrations were determined by Pierce BCA Protein Assay and 30-50 μg of protein was loaded onto 10% Tris-Glycine gels. After standard gel electrophoresis, the separated proteins were transferred to nitrocellulose by wet transfer. The immunoblots were then processed by standard procedures and incubated with the respective antibodies. Band intensities were quantified by Bio-Rad's Image Lab software.

T1 sequence (P08581 25-1390): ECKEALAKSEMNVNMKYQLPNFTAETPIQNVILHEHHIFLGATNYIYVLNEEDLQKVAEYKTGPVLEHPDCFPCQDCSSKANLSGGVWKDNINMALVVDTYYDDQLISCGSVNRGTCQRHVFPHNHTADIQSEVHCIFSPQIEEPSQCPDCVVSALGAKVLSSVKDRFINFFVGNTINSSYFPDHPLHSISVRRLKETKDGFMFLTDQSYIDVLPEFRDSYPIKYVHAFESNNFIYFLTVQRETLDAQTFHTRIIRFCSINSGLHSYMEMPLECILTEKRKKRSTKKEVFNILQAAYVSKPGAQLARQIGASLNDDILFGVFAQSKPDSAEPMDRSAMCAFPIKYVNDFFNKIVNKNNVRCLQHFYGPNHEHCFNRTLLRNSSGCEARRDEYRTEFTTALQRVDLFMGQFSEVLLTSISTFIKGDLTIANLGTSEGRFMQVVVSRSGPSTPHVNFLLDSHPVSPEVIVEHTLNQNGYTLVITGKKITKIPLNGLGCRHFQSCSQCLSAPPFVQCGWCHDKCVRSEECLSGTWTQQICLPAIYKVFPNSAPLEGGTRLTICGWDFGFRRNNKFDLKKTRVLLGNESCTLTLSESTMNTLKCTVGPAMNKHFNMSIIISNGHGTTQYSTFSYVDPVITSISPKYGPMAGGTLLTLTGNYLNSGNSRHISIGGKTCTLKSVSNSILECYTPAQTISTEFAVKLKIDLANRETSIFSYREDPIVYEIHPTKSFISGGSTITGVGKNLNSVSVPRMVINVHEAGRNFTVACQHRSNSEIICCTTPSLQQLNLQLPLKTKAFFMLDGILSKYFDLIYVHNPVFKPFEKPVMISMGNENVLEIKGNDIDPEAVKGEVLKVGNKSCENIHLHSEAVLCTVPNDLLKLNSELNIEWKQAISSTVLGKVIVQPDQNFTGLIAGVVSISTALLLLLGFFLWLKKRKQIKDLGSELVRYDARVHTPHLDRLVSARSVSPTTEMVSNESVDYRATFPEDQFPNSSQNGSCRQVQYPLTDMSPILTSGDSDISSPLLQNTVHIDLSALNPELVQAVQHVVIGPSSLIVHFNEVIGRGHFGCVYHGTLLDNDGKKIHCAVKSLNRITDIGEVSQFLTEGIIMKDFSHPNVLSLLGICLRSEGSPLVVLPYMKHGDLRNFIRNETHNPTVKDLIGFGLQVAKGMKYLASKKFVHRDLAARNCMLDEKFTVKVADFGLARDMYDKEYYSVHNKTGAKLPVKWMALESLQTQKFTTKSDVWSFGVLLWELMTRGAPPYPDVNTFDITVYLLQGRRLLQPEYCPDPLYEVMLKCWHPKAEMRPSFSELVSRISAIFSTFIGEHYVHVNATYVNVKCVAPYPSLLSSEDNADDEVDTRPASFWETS

degradation of c-Met (western blot): significant protein degradation of c-Met
Structure (SMILES): COc1cc2c(Oc3ccc(NC(=O)C4(C(=O)Nc5ccc(F)cc5)CC4)cc3F)ccnc2cc1OCCCOCCCOCCC(=O)N[C@H](C(=O)N1C[C@H](O)C[C@H]1C(=O)NCc1ccc(-c2scnc2C)cc1)C(C)(C)C [Example 1]
